Results taken from ChEMBL document CHEMBL1132744, “Synthesis and antiproliferative activity of some benzimidazole-4,7-dione derivatives” (Bioorg Med Chem Lett, 2000).

Experiments:
MCF7 = test: Antiproliferative activity of compound was evaluated on MCF-7 cells from human breast adenocarcinoma; assay type: functional; conditions: read-out: ID50 (the source's name)
[1] = Antiproliferative activity of compound was evaluated on SupT1 cells from human non-Hodgkin lymphoma; assay type: functional; conditions: SUP-T1, read-out: ID50 (the source's name)
[2] = Antiproliferative activity of compound was evaluated on Molt3 cells from human lymphoblastic leukemia; assay type: functional; conditions: MOLT-3, read-out: ID50 (the source's name)
Vero [3] = test: The compound was evaluated for cytotoxicity against VERO cells using Lowry's test at a concentration 11.2 uM; assay type: cell-based; conditions: chlorocebus sabaeus
Vero [4] = test: The compound was evaluated for cytotoxicity against VERO cells using Lowry's test at a concentration 0.7 uM; assay type: cell-based; conditions: chlorocebus sabaeus
Vero [5] = test: The compound was evaluated for cytotoxicity against VERO cells using Lowry's test at a concentration 90 uM; assay type: cell-based; conditions: chlorocebus sabaeus
[6] = The compound was evaluated for cytotoxicity against VERO cells using Dye test at a concentration 0.7 uM; assay type: cell-based; conditions: chlorocebus sabaeus, read-out: Cellular growth
[7] = The compound was evaluated for cytotoxicity against VERO cells using Dye test at a concentration 90 uM; assay type: cell-based; conditions: chlorocebus sabaeus, read-out: Cellular growth
[8] = The compound was evaluated for cytotoxicity against VERO cells using Dye test at a concentration 11.2 uM; assay type: cell-based; conditions: chlorocebus sabaeus, read-out: Cellular growth

| SMILES | IC50 (MCF7) [µM] | IC50 [1] [µM] | IC50 [2] [µM] | Protein content (Vero [3]) [%] | Protein content (Vero [4]) [%] | Protein content (Vero [5]) [%] | viability at 0.7 µM [6] [%] | viability at 90 µM [7] [%] | viability at 11.2 µM [8] [%] |
| --- | --- | --- | --- | --- | --- | --- | --- | --- | --- |
| CSc1nc2c([nH]1)C(=O)C(=N)C=C2O | > 90 | 10.8 | 60.4 |  |  |  |  |  |  |
| CSc1nc2c([nH]1)C(=O)C=C(Br)C2=O | 62.8 | 5.03 | 32.1 |  |  |  |  |  |  |
| O=C1C(Br)=CC(=O)c2[nH]c(-c3ccccn3)nc21 | > 90 | 5.57 | 7.52 |  |  |  |  |  |  |
| CSc1nc2c([nH]1)C(=O)/C(=N/CCCl)C=C2O | > 90 | 15.3 | 30.6 |  |  |  |  |  |  |
| CSc1nc2c([nH]1)C(=O)C=C(N(C)C)C2=O | > 90 | 38 | 18.3 |  |  |  |  |  |  |
| CN(C)C1=CC(=O)c2[nH]c(-c3ccccn3)nc2C1=O | > 90 | 17.4 | 22.4 |  |  |  |  |  |  |
| NC1=CC(=O)c2[nH]c(-c3ccccn3)nc2C1=O | > 90 | 29.3 | 39.7 |  |  |  |  |  |  |

The next lines start with results.

| IC50 (MCF7) [µM] | SMILES | IC50 [1] [µM] | IC50 [2] [µM] | Protein content (Vero [3]) [%] | Protein content (Vero [4]) [%] | Protein content (Vero [5]) [%] | viability at 0.7 µM [6] [%] | viability at 90 µM [7] [%] | viability at 11.2 µM [8] [%] |
| --- | --- | --- | --- | --- | --- | --- | --- | --- | --- |
| 40.3 | CSc1nc2c([nH]1)C(=O)C(Br)=C(Br)C2=O | 6.26 | 12 |  |  |  |  |  |  |
| 62.6 | CSc1nc2c([nH]1)C(=O)C=CC2=O | 2.87 | 1.32 | 86.4 | 102.9 | 68.9 | 99.3 | 73.6 | 101 |
| 26.4 | COC1=CC(=O)c2[nH]c(-c3ccccn3)nc2C1=O | 2.57 | 2.63 | 81.3 | 97.2 | 16.2 | 114 | 16.4 | 71.2 |
| 36 | COC1=CC(=O)c2[nH]c(SC)nc2C1=O | 5.07 | 20.8 |  |  |  |  |  |  |
| 42.9 | CO[C@@]12[C@H](COC(N)=O)C3=C(C(=O)C(C)=C(N)C3=O)N1C[C@@H]1N[C@@H]12 [MITOMYCIN] | < 0.7 | 2.66 |  |  |  |  |  |  |
